Columns and labels:
Test in all cases: relative viability (nuclei count vs DMSO), 5 days (fraction); higher = more cells survive
[1] = compound: CC1=C(N=C(N=C1N)[C@H](CC(=O)N)NC[C@@H](C(=O)N)N)C(=O)N[C@@H]([C@H](C2=CN=CN2)OC3C(C(C(C(O3)CO)O)O)OC4C(C(C(C(O4)CO)O)OC(=O)N)O)C(=O)N[C@H](C)[C@H]([C@H](C)C(=O)N[C@@H]([C@@H](C)O)C(=O)NCCC5=NC(=CS5)C6=NC(=CS6)C(=O)NCCC[S+](C)C)O [Bleomycin]; conditions: main component drawn
Procedure, shortened: (§1)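 Cells of lung cancer lines were placed in 1536-well plates and kept overnight at 37 °C. Pinning then delivered five library-drug doses (not always all listed), spaced by √10, onto plates anchored with vehicle, and the cells were left 5 days without changing medium. One step fixed, permeabilised and stained them with Hoechst, and MetaXpress counted nuclei in 4× images. Viability, as a median over plates, is treated-well nuclei divided by vehicle-well nuclei, with acceptance only at control CV below 25% and at least one doubling.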

[2] = compound: COc1cc([C@@H]2c3cc4c(cc3[C@@H](O[C@@H]3O[C@@H]5CO[C@@H](C)O[C@H]5[C@H](O)[C@H]3O)[C@H]3COC(=O)[C@H]23)OCO4)cc(OC)c1O [Etoposide]
Procedure, shortened: as §1

[3] = compound: CC1=C(N=C(N=C1N)[C@H](CC(=O)N)NC[C@@H](C(=O)N)N)C(=O)N[C@@H]([C@H](C2=CN=CN2)OC3C(C(C(C(O3)CO)O)O)OC4C(C(C(C(O4)CO)O)OC(=O)N)O)C(=O)N[C@H](C)[C@H]([C@H](C)C(=O)N[C@@H]([C@@H](C)O)C(=O)NCCC5=NC(=CS5)C6=NC(=CS6)C(=O)NCCC[S+](C)C)O [Bleomycin] + CC1(C)CCC(c2ccc(Cl)cc2)=C(CN2CCN(c3ccc(C(=O)NS(=O)(=O)c4ccc(N[C@H](CCN5CCOCC5)CSc5ccccc5)c(S(=O)(=O)C(F)(F)F)c4)cc3)CC2)C1 [Navitoclax] (partner 0.5 µM); conditions: main component drawn
Procedure, shortened: (§2)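 Lung cancer cell lines were seeded in 1536-well plates and dosed by pin tool the next day, with either a single drug or a fixed anchor-drug dose combined with five library-drug doses (not always all listed) spaced in √10 steps. Five days later, one step fixed the cells and stained their nuclei (final 0.05% Triton X-100, 1% formaldehyde, 1 ug/ml Hoechst), and nuclei were counted on 4× images. Relative viability is the nuclei count in treated wells divided by the count in vehicle wells, and each value is the median of duplicate plates.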

[4] = compound: CC1=C(N=C(N=C1N)[C@H](CC(=O)N)NC[C@@H](C(=O)N)N)C(=O)N[C@@H]([C@H](C2=CN=CN2)OC3C(C(C(C(O3)CO)O)O)OC4C(C(C(C(O4)CO)O)OC(=O)N)O)C(=O)N[C@H](C)[C@H]([C@H](C)C(=O)N[C@@H]([C@@H](C)O)C(=O)NCCC5=NC(=CS5)C6=NC(=CS6)C(=O)NCCC[S+](C)C)O [Bleomycin] + COc1cc2c(Oc3ccc(NC(=O)C4(C(=O)Nc5ccc(F)cc5)CC4)cc3F)ccnc2cc1OCCCN1CCOCC1 [Foretinib] (partner 0.25 µM); conditions: main component drawn
Procedure, shortened: as §2

Cell Line	relative viability ([1]; 0.01 µM)	relative viability ([1]; 0.03162 µM)	relative viability ([1]; 0.1 µM)	relative viability ([1]; 0.3162 µM)	relative viability ([1]; 1 µM)	relative viability ([2]; 0.01 µM)	relative viability ([2]; 0.03162 µM)	relative viability ([2]; 0.1 µM)	relative viability ([2]; 0.3162 µM)	relative viability ([2]; 1 µM)	relative viability ([3]; first compound 0.01 µM)	relative viability ([3]; first compound 0.03162 µM)	relative viability ([3]; first compound 0.1 µM)	relative viability ([3]; first compound 0.3162 µM)	relative viability ([3]; first compound 1 µM)	relative viability ([4]; first compound 0.01 µM)	relative viability ([4]; first compound 0.03162 µM)	relative viability ([4]; first compound 0.1 µM)	relative viability ([4]; first compound 0.3162 µM)	relative viability ([4]; first compound 1 µM)
NCI-H1650	0.584	0.394	0.243	0.179	0.195	0.897	0.903	0.739	0.38	0.161	0.394	0.429	0.212	0.148	0.211	0.718	0.393	0.254	0.188	0.181
NCI-H1395	0.753	0.833	0.603	0.476	0.398	0.872	0.961	0.804	0.781	0.658	0.829	0.944	0.709	0.535	0.496	0.886	0.932	0.827	0.672	0.497
NCI-H2087	0.822	1.06	0.851	0.257	0.235	0.967	1.11	0.978	0.78	0.259	0.69	1.04	0.841	0.371	0.158	–	0.827	0.872	0.205	0.158
LU99A	0.766	0.794	0.659	0.407	0.242	0.934	1.17	0.499	0.681	0.233	0.622	0.491	0.335	0.166	0.147	0.683	0.64	0.503	0.297	0.19
NCI-H1355	0.935	1.02	0.979	0.482	0.297	0.947	1.08	0.535	0.713	0.33	1.01	0.947	0.913	0.565	0.328	0.931	0.971	0.937	0.52	0.348
HCC-78	0.788	0.994	0.883	0.564	0.642	0.942	1.09	0.687	0.515	0.273	0.463	0.439	0.387	0.326	0.278	0.533	0.519	0.534	0.399	0.507
HCC-15	0.937	0.873	0.879	0.424	0.382	1.01	1.07	1	0.485	0.182	0.656	0.68	0.713	0.378	0.324	0.869	0.913	0.752	0.33	0.227
EKVX	0.928	0.898	0.797	0.374	0.321	0.998	1.01	0.637	0.741	0.377	0.75	0.925	0.842	0.424	0.285	0.707	0.889	0.423	0.335	0.314
NCI-H2126	0.961	1	1.03	0.758	0.714	0.977	1.05	0.63	0.859	0.441	0.787	0.82	0.839	0.8	0.643	1.17	1.26	1.23	0.903	0.491
LK-2	0.686	0.575	0.485	0.28	0.277	0.979	1.31	0.684	0.663	0.268	0.478	0.537	0.415	0.214	0.239	0.803	0.779	0.743	0.36	0.285
NCI-H1437	0.879	0.985	0.886	0.654	0.567	1.04	1.07	0.999	0.68	0.343	0.952	1.07	0.978	0.667	0.491	1.18	1.12	0.959	0.695	0.619
COR-L23	0.831	0.799	0.586	0.188	0.129	0.865	1.05	0.976	0.704	0.324	0.811	0.723	0.332	0.0914	0.104	0.825	0.781	0.412	0.154	0.144
PC-14	0.656	0.612	0.286	0.097	0.057	0.996	1.08	0.933	0.782	0.441	0.663	0.532	0.174	0.0752	0.0592	0.773	0.566	0.447	0.137	0.0938
A549	0.843	0.789	0.608	0.132	0.0828	0.875	0.947	0.476	0.281	0.131	0.933	0.827	0.54	0.127	0.0446	0.812	0.917	0.635	0.182	0.0665

— the supplement of paper PMC10307832
